Patent publication US20080027005A1, “PEPTIDES EFFECTIVE IN THE TREATMENT OF TUMORS AND OTHER CONDITIONS REQUIRING THE REMOVAL OR DESTRUCTION OF CELLS” (priority 2006, published 2008)
Where no end group is shown, it is not given here.

Test system: prostate
Experiment: Effect of S05B Peptides on tissue at sites of injection: intraprostatic infusion in rats, histology and prostate volume
Format: in vivo, Male Sprague-Dawley rats
Details: for Histological findings in prostate of treated rats: rat prostate after intraprostatic infusion 1.0 mg/kg, controls minimal or absent changes; for Calculated Mean Volume (mm^3) At 7 Days / Reduction in Mean Volume Compared to Controls / Histological Changes of Cell Death at 24 Hours / Histological Changes of Cell Death at 72 Hours: rat prostate; for Calculated Mean Volume (mm^3) At 7 Days: 7 days after intraprostatic infusion 1.0 mg/kg, V=4/3π(D/2)^3 from mean cross-sectional diameters, PBS control 519; for Reduction in Mean Volume Compared to Controls: 7 days, compared to PBS injection only; for Histological Changes of Cell Death at 24 Hours / Histological Changes of Cell Death at 72 Hours: intraprostatic infusion 300 μl of 1 mg/mL in PBS pH 7.4 (1.0 mg/kg), H & E sections
Protocol: The purpose of this example was to determine the effect of S05B Peptides on tissue at sites of injection.
Male Sprague-Dawley rats (300 gram weight range) were anesthetized with ether and given one of the above S05B Peptides by intraprostatic infusion, a control injection of normal saline or no injection after open surgical visualization of the prostate. The injections consisted of 300 μl of the S05B Peptide 1 mg/mL in PBS pH 7.4. (1.0 mg/kg) (n=85). Rats were painlessly sacrificed after 24 hours (n=18), 72 hours (n=35) and 7 days (n=32). Prostate glands were dissected, fixed in 10% buffered formalin for 24 hours, embedded in paraffin, sectioned, and stained with H & E. For each animal the entire prostate gland was embedded and sectioned. All stained sections were examined histologically. For each prostate at least 2 histological sections were examined, and for each histological section from the 7 day group two cross-sectional diameters (D) at 90° from each other were measured (total of >8 measurements per prostate). The mean of the cross-sectional diameters (D) for each group was used to estimate volume according to V=4/3π(D/2)^3 and the mean volume calculated for each group. Histological changes were assessed on the following scale:
+++ Present, Moderate and Diffuse
++++ Present, Diffuse and Extensive

Substance	Histological findings in prostate of treated rats	Calculated Mean Volume (mm^3) At 7 Days [mm^3]	Reduction in Mean Volume Compared to Controls [%]	Histological Changes of Cell Death at 24 Hours	Histological Changes of Cell Death at 72 Hours
DQQVLS [S05B-2]	extensive cell death, necrosis, loss of glandular epithelium and atrophy	289	44	+++	+++
DQQVLSRI [S05B-3]	extensive cell death, necrosis, loss of glandular epithelium and atrophy	289	44	+++	+++
IDQQVL [S05B-4]	extensive cell death, necrosis, loss of glandular epithelium and atrophy	358	31	++	++
